Measured values taken from patent publication US10857170B1, “Molecules, compositions and methods for modulation of SIRT6” (SirTLab Corporation, priority 2015, dated 2020).

Biological target: T1, Human recombinant SIRT6 (Homo sapiens, UniProt Q8N6T7)
T1 construct: six-histidine (His6); made in house; host or cells: Escherichia coli BL21
Experiment: SIRT6 enzymatic activity assay (fluorogenic de-myristoylation of histone H3 peptide-AMC, trypsin-coupled)
Assay type: biochemical
Details: for % activity 20 uM / % activity 100 uM: Table 2, percentage of signal increase relative to control wells; for % activity 20 uM: compound 20 uM; for % activity 100 uM: compound 100 uM; for % activity (20 micromolar only): Table 3, compound 20 micromolar
Description: Human recombinant SIRT6 (sequence identifier: CAG33481.1; GI:4814651) was expressed in large scale in Escherichia coli strain BL21 as a six-histidine-tagged protein, after transformation of the expression plasmid pET28-SIRT6. The SIRT6 enzyme was purified from the bacteria culture broth in a two-step strategy. The first purification step was carried out by cation exchange chromatography on a HiTrap CM-Sepharose column (GE Healthcare) using an FPLC system. The second purification step was performed by immobilized metal ion affinity chromatography (IMAC) using a cobalt affinity column (Clontech).
The enzymatic activity assay is carried out in 96 or 384-well microplates using the purified recombinant SIRT6 and a fluorophore-labeled peptide substrate: 7-amino-4-methylcoumarin (AMC) that is quenched through conjugation to the C-terminal end of a Lysin-myristoylated histone H3 peptide. The activity assay procedure requires two steps, both performed in the same microplate. In the first step, the substrate is incubated with the purified SIRT6 protein along with the co-substrate nicotinamide adenine dinucleotide (NAD+). Upon de-myristoylation, the liberated ε-amino group of the lysine becomes a trypsin substrate. Treatment with trypsin in the second step releases the fluorophore resulting in an increase in fluorescence. Fluorescence intensity is measured using a fluorescent plate reader (excitation and emission at 370 nm and 450 nm, respectively). The fluorescence signal is directly proportional to SIRT6 enzymatic activity.
In the primary screening, compounds from a library (ChemDiv Inc.) were tested at a single concentration of 20 micromolar for their potential to modulate SIRT6 enzymatic activity. The assay was carried out in 384-well black well plates and all liquid handling was done using a robotic liquid handler. Purified recombinant SIRT6 (1 micromolar) was pre-incubated with each compound (or DMSO in control wells) for 15 minutes at room temperature. The first stage of the assay was initiated by adding a ‘substrate solution’ containing the myristoylated histone H3 peptide and NAD+(for final concentrations of 25 micromolar and 20 micromolar, respectively). After one hour incubation at 37° C., a Trypsin solution (6 mg/mL) was added for 30 minutes at room temperature. Fluorescence intensity was measured using a fluorescent plate reader (Tecan) with excitation at 370 nm and emission at 450 nm. The effect of each tested compound was evaluated by the change in the fluorescence intensity compared to control wells. […] To validate the primary screening results, each of the primary “hits” was re-tested, first at concentration of 20 micromolar in duplicates and later at a serial dilution ranging from 100 to 0.2 micromolar in triplicates.

T1 sequence (Q8N6T7 whole entry): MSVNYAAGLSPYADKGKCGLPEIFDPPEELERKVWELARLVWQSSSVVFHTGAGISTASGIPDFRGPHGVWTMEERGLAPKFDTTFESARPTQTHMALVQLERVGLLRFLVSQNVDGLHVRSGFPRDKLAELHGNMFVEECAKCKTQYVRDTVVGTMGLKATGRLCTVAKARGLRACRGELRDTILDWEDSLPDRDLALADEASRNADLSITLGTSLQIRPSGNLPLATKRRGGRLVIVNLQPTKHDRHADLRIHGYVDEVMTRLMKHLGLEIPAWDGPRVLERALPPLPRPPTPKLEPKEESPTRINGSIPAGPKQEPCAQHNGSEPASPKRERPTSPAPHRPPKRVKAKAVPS

With `C=C(c1ccc(-c2ccc(N3CCCCC3)nc2)cc1)N(C)C` [compound 48] as the molecule, how does the “% activity 20 uM” value read?
Its value is 40%.

And the “% activity 100 uM” value?
Its value is 54%.

How did the “% activity 20 uM” value turn out when `O=C(c1ccc(-c2ccc(N3CCCCC3)nc2)cc1)N1CCCC1` [compound 49] was run?
Its value is 93%.

And the “% activity 100 uM” value?
Its value is 75%.

Which results are given for `O=C(Nc1ccc2nncn2c1)c1cccc(Cl)c1` [compound 50]?
% activity 20 uM: 30%; % activity 100 uM: 51%

Which results are given for `CC(C)(C)c1ccc(C(=O)Nc2ccc3nnc(C4CCC4)n3c2)cc1` [compound 51]?
% activity 20 uM: 23%; % activity 100 uM: 87%

Which “% activity 20 uM” value does the source give for `O=C(Nc1ccc2nnc(C3CCC3)n2c1)C1CC1` [compound 52] here?
The value was 69%.

What about the “% activity 100 uM” value of the same molecule?
The value was 142%.

How did the “% activity 20 uM” value turn out when `Cc1nc(Nc2ccc(F)cc2)sc1C(=O)Nc1ccc(F)cc1F` [compound 53] was run?
Its value is 36%.

And the “% activity 100 uM” value?
The value was 22%.

Which “% activity 20 uM” value does the source give for `Cc1ccc(Nc2nc(C)c(C(=O)Nc3cccc(C(C)C)c3)s2)cc1` [compound 54] here?
The value was 31%.

What about the “% activity 100 uM” value of the same molecule?
The value was 11%.

With `COc1cc(NC(=O)c2csc(-c3cn(C)c4ncccc34)n2)cc(OC)c1` [compound 55] as the molecule, how does the “% activity 20 uM” value read?
Its value is 31%.

What about the “% activity 100 uM” value of the same molecule?
The value was 37%.

`CCCC1(CO)CCCN1C(=O)c1ccc2cc[nH]c2c1` (centres unmarked) [compound 56] was tested. Which “% activity 20 uM” value did it give?
The value was 30%.

And the “% activity 100 uM” value?
Its value is 53%.

Which results are given for `N#Cc1cccc(-c2cn3c(n2)N(C(=O)c2ccncc2)CCC3)c1` [compound 57]?
% activity 20 uM: 37%; % activity 100 uM: 45%

With `Cc1noc(-c2cccc(OC3CN(C(=O)c4cccc5[nH]ccc45)C3)c2)n1` [compound 58] as the molecule, how does the “% activity 20 uM” value read?
Its value is 38%.

And the “% activity 100 uM” value?
Its value is 47%.

How did the “% activity 20 uM” value turn out when `C=C(C)C1Cc2cc(C(F)(F)F)ccc2N2CCCCC12` (centres unmarked) [compound 59] was run?
The value was 89%.

And the “% activity 100 uM” value?
Its value is 175%.

How did the “% activity 20 uM” value turn out when `Cc1nc(-c2cccc(C(F)(F)F)c2)c(N)c(N(C)C2CCN(C)CC2)n1` [compound 60] was run?
Its value is 52%.

What about the “% activity 100 uM” value of the same molecule?
Its value is 255%.

`Cc1nc(-c2cccc(F)c2)c(N)c(N(C)C2CCN(C)CC2)n1` [compound 61] was tested. Which “% activity 20 uM” value did it give?
Its value is 50%.

And the “% activity 100 uM” value?
Its value is 210%.

`C=C1Cc2cc(C)cc(CC(=O)[C@@H](NS(=C)(=C)c3ccc(C)cc3)[C@H](C)CC)c2C2=C1CCC2` [compound 62] was tested. Which “% activity 20 uM” value did it give?
The value was 28%.

What about the “% activity 100 uM” value of the same molecule?
The value was 113%.

How did the “% activity (20 micromolar only)” value turn out when `O=C(NCc1ccc2c(c1)CCC2)c1ccc(NC(=O)C2CC2)cc1N1CCCCCC1` [compound 63] was run?
Its value is 38%.

How did the “% activity (20 micromolar only)” value turn out when `CCn1c2ccccc2c2nnc(N3CCN(c4cccc(C(F)(F)F)c4)CC3)nc21` [compound 64] was run?
The value was 85%.
